According to patent US8778935B2 (Centro Nacional de Investigaciones Oncologicas (CNIO), priority 2009, dated 2014):
Read-outs that look alike come from different tables or passages of the source.

Target: T1, PI3K (p110α/p85α) (Homo sapiens, UniProt P42336)
T1 construct: purchased Carna Biosciences 07CBS-0402A
Assay: PI3K Activity Assay (ADP Hunter Plus)
Assay type: biochemical
Description: The kinase activity was measured by using the commercial ADP Hunter™ Plus assay available from DiscoveRx (#33-016), which is a homogeneous assay to measure the accumulation of ADP, a universal product of kinase activity. […] Reaction was carried out for 1 hour at 25° C. Reagent A and B were sequentially added to the wells and plates were incubated for 30 min at 37° C. […] Values were normalized against the control activity included for each enzyme (i.e., 100% PI3 kinase activity, without compound). These values were plot against the inhibitor concentration and were fit to a sigmoid dose-response curve by using the Graphad software.

[1] = quantitative results, read-out: PI3Kα IC50
[2] = semi-quantitative results, read-out: PI3Kα IC50 (semi-quantitative class)

T1 sequence (P42336 whole entry): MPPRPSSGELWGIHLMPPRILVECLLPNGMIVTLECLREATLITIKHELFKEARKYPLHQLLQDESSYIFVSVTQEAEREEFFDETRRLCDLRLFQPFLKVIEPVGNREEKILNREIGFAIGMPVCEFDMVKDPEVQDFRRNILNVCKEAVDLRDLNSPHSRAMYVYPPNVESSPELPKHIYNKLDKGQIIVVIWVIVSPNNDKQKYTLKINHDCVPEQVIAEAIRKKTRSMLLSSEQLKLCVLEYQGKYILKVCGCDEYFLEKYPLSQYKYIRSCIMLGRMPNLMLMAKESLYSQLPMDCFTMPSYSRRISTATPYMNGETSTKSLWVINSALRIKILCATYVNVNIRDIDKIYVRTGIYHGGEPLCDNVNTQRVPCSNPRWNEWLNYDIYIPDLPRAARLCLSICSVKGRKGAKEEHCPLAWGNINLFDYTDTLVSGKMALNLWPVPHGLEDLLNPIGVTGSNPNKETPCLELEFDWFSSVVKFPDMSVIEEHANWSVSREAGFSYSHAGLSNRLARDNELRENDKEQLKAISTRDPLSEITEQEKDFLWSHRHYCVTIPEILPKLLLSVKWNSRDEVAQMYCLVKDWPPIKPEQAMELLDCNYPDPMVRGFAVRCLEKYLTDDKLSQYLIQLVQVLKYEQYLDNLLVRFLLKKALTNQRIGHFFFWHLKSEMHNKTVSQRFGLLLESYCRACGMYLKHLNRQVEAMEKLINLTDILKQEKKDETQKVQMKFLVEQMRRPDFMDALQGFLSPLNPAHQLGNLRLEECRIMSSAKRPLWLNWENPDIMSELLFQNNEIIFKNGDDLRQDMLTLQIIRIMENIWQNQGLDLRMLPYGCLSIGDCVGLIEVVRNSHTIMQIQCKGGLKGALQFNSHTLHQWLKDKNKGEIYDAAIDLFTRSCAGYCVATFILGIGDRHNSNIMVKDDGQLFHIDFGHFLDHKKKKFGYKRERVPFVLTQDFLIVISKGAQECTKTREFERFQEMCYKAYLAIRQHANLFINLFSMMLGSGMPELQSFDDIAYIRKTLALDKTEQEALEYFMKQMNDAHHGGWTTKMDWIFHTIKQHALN
T1 sequence (P27986 whole entry partner): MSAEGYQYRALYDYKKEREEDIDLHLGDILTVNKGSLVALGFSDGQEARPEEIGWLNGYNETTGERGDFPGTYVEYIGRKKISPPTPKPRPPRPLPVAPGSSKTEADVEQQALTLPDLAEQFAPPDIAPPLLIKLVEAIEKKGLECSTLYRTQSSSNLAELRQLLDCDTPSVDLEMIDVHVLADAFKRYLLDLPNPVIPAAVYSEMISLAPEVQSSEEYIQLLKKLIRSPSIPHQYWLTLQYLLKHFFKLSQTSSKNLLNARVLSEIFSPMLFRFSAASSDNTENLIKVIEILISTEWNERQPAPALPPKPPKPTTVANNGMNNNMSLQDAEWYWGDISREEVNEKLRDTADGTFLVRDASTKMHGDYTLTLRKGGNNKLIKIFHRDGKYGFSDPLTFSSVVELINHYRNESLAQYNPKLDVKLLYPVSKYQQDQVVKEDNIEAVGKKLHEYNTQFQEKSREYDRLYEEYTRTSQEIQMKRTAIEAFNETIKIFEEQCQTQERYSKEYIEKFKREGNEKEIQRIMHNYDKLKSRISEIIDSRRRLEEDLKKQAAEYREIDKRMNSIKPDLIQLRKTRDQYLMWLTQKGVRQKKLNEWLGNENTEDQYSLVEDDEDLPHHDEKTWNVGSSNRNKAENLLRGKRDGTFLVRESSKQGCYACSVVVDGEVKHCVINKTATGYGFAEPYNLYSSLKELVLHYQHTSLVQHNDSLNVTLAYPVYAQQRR

| Compound | IC50 [1] | IC50 [2] |
| --- | --- | --- |
| c1cc(-c2cn3cc(C4CC4)nc3c(N3CCOCC3)n2)c2cn[nH]c2c1 [2-19, 2-cyclopropyl-6-(1H-indazol-4-yl)-8-morpholinoimidazo[1,2-a]pyrazine] | 438 nM | – |
| FC(F)(F)c1cn2cc(-c3cccc4[nH]ncc34)nc(N3CCOCC3)c2n1 [2-20, 2-(trifluoromethyl)-6-(1H-indazol-4-yl)-8-morpholinoimidazo[1,2-a]pyrazine] | 1800 nM | – |
| N#Cc1cn2cc(-c3cccc4[nH]ncc34)nc(N3CCOCC3)c2n1 [2-22, 6-(1H-indazol-4-yl)-8-morpholinoimidazo[1,2-a]pyrazine-2-carbonitrile] | 618 nM | 100 to 1000 nM |
| Cc1cn2cc(-c3cccc4[nH]ncc34)nc(N3CCOCC3)c2n1 [2-24, 6-(1H-indazol-4-yl)-2-methyl-8-morpholinoimidazo[1,2-a]pyrazine] | 2600 nM | > 1000 nM |
| Cc1cn2cc(-c3cccnc3)nc(N3CCOCC3)c2n1 [2-26, 2-methyl-8-morpholino-6-(pyridin-3-yl)imidazo[1,2-a]pyrazine] | 10000 nM | – |
| COc1cncc(-c2cn3cc(C)nc3c(N3CCOCC3)n2)c1 [2-27, 6-(5-methoxypyridin-3-yl)-2-methyl-8-morpholinoimidazo[1,2-a]pyrazine] | 3900 nM | > 1000 nM |
| Cc1cn2cc(-c3cccc(NS(C)(=O)=O)c3)nc(N3CCOCC3)c2n1 [2-28] | 50000 nM | – |
| CNC(=O)Nc1ccc(-c2cn3cc(C)nc3c(N3CCOCC3)n2)cc1 [2-29, 1-methyl-3-(4-(2-methyl-8-morpholinoimidazo[1,2-a]pyrazin-6-yl)phenyl)urea] | 3000 nM | – |
| Cc1cn2cc(-c3ccncc3)nc(N3CCOCC3)c2n1 [2-31, 2-methyl-8-morpholino-6-(pyridin-4-yl)imidazo[1,2-a]pyrazine] | 10000 nM | – |
| CN1CCN(c2cnc3c(N4CCOCC4)nc(-c4cccc5[nH]ncc45)cn23)CC1 [2-38, 6-(1H-indazol-4-yl)-3-(4-methylpiperazin-1-yl)-8-morpholinoimidazo[1,2-a]-pyrazine] | – | 100 to 1000 nM |
| CS(=O)(=O)N1CCN(c2cnc3c(N4CCOCC4)nc(-c4cccc5[nH]ncc45)cn23)CC1 [2-41, 6-(1H-indazol-4-yl)-3-(4-sulfonylmethylpiperazin-1-yl)-8-morpholinoimidazo[1,2-a]pyrazine] | – | 100 to 1000 nM |
| Cc1nc2c(N3CCOCC3)nc(-c3cccc4[nH]ncc34)cn2c1C1=CCNCC1 [2-44, 3-(1,2,3,6-tetrahydropyridin-4-yl)-6-(1H-indazol-4-yl)-2-methyl-8-morpholino-imidazo[1,2-a]pyrazine] | 731 nM | 100 to 1000 nM |
| Cc1cn2c(Cl)c(-c3cccc(O)c3)nc(N3CCOCC3)c2n1 [2-49, 3-(5-chloro-2-methyl-8-morpholinoimidazo[1,2-a]pyrazin-6-yl)phenol] | – | 100 to 1000 nM |
| CCOC(=O)c1cn2cc(-c3cccc4[nH]ncc34)nc(N3CCOCC3)c2n1 [2-52, ethyl 6-(1H-indazol-4-yl)-8-morpholinoimidazo[1,2-a]pyrazine-2-carboxylate] | 676 nM | – |
| Cc1cn2c(Cl)c(-c3cccc4[nH]ncc34)nc(N3CCOCC3)c2n1 [2-54, 5-chloro-6-(1H-indazol-4-yl)-2-methyl-8-morpholinoimidazo[1,2-a]pyrazine] | 266 nM | 100 to 1000 nM |
| Cc1cn2c(Br)c(-c3cccc4[nH]ncc34)nc(N3CCOCC3)c2n1 [2-55, 5-bromo-6-(1H-indazol-4-yl)-2-methyl-8-morpholinoimidazo[1,2-a]pyrazine] | 12000 nM | – |
| Cc1cn2c(I)c(-c3cccnc3)nc(N3CCOCC3)c2n1 [2-56, 5-iodo-2-methyl-8-morpholino-6-(pyridin-3-yl)imidazo[1,2-a]pyrazine] | 253 nM | – |

Next, values leading:

| IC50 [1] | IC50 [2] | Compound |
| --- | --- | --- |
| 19000 nM | – | O=C(O)c1cn2cc(-c3cccc(O)c3)nc(N3CCOCC3)c2n1 [2-02, 6-(3-hydroxyphenyl)-8-morpholinoimidazo[1,2-a]pyrazine-2-carboxylic acid] |
| 10000 nM | – | O=Cc1cn2cc(-c3cccc(O)c3)nc(N3CCOCC3)c2n1 [2-03, 6-(3-hydroxyphenyl)-8-morpholinoimidazo[1,2-a]pyrazine-2-carbaldehyde] |
| 639 nM | 100 to 1000 nM | OCc1cn2cc(-c3cccc(O)c3)nc(N3CCOCC3)c2n1 [2-04, 3-(2-(hydroxymethyl)-8-morpholinoimidazo[1,2-a]pyrazin-6-yl)phenol] |
| 476 nM | – | CC(C)(C)OC(=O)N1CCN(Cc2cn3cc(-c4cccc(O)c4)nc(N4CCOCC4)c3n2)CC1 [2-05, tert-butyl 4-((6-(3-hydroxyphenyl)-8-morpholinoimidazo[1,2-a]pyrazin-2-yl)methyl)-piperazine-1-carboxylate] |
| 451 nM | 100 to 1000 nM | CC(=O)N1CCN(Cc2cn3cc(-c4cccc(O)c4)nc(N4CCOCC4)c3n2)CC1 [2-06, 1-(4-((6-(3-hydroxyphenyl)-8-morpholinoimidazo[1,2-a]pyrazin-2-yl)methyl)-piperazin-1-yl)ethanone] |
| 27000 nM | – | CN1CCN(Cc2cn3cc(-c4cccc(O)c4)nc(N4CCOCC4)c3n2)CC1 [2-07, 3-(2a-((4-methylpiperazin-1-yl)methyl)-8-morpholinoimidazo[1,2-a]pyrazin-6-yl)phenol] |
| 540 nM | 100 to 1000 nM | O=C1CN(Cc2cn3cc(-c4cccc(O)c4)nc(N4CCOCC4)c3n2)CCN1 [2-08, 4-((6-(3-hydroxyphenyl)-8-morpholinoimidazo[1,2-a]pyrazin-2-yl)methyl)piperazin-2-one] |
| 444 nM | 100 to 1000 nM | Oc1cccc(-c2cn3cc(CN4CCOCC4)nc3c(N3CCOCC3)n2)c1 [2-09, 3-(8-morpholino-2-(morpholinomethyl)imidazo[1,2-a]pyrazin-6-yl)phenol] |
| 44 nM | – | CS(=O)(=O)N1CCN(C(=O)c2cn3cc(-c4cccc(O)c4)nc(N4CCOCC4)c3n2)CC1 [2-11, (6-(3-hydroxyphenyl)-8-morpholinoimidazo[1,2-a]pyrazin-2-yl)(4-sulfonylmethyl-piperazin-1-yl)methanone] |
| 340 nM | 100 to 1000 nM | Oc1cccc(-c2cn3cc(C4CC4)nc3c(N3CCOCC3)n2)c1 [2-14, 3-(2-cyclopropyl-8-morpholinoimidazo[1,2-a]pyrazin-6-yl)phenol] |
| 741 nM | 100 to 1000 nM | CN1CCN(C(=O)c2cn3cc(-c4cccc5[nH]ncc45)nc(N4CCOCC4)c3n2)CC1 [2-15, (6-(1H-indazol-4-yl)-8-morpholinoimidazo[1,2-a]pyrazin-2-yl)(4-methylpiperazin-1-yl)methanone] |
| 96 nM | < 100 nM | Cc1cn2cc(-c3cccc(O)c3)nc(N3CCOCC3)c2n1 [2-23, 3-(2-methyl-8-morpholinoimidazo[1,2-a]pyrazin-6-yl)phenol] |
| 235 nM | 100 to 1000 nM | Cc1cn2cc(-c3cncc(O)c3)nc(N3CCOCC3)c2n1 [2-30, 5-(2-methyl-8-morpholinoimidazo[1,2-a]pyrazin-6-yl)pyridin-3-ol] |
| – | 100 to 1000 nM | CN1CCN(c2cnc3c(N4CCOCC4)nc(-c4cccc(O)c4)cn23)CC1 [2-37, 3-(3-(4-methylpiperazin-1-yl)-8-morpholinoimidazo[1,2-a]pyrazin-6-yl)phenol] |
| – | 100 to 1000 nM | Oc1cccc(-c2cn3c(N4CCNCC4)cnc3c(N3CCOCC3)n2)c1 [2-40, 3-(8-morpholino-3-(piperazin-1-yl)imidazo[1,2-a]pyrazin-6-yl)phenol] |
